Values quoted from earlier work as cited in EP4752146A1, “NOVEL CA[…] CARRIER-DRUG CONJUGATE COMPRISING SAME” (priority 2023, dated 2025).

Test system: cancer cells
Details: background

With `CC[C@@]1(O)C(=O)OCc2c1cc1n(c2=O)Cc2c-1nc1cc(F)c(C)c3c1c2[C@@H](NC(=O)CO)CC3` [DXd] as the compound, how does the “activity in cancer cells relative to SN-38” value (higher than SN-38) read?
Its value is “approximately 10 fold”.

For `CCc1c2c(nc3ccc(O)cc13)-c1cc3c(c(=O)n1C2)COC(=O)[C@]3(O)CC` [SN-38], which IC50 (various cell lines) is on record?
Its IC50 is “nanomolar range”.
